Patent publication US20060058275A1, “Processes for preparing stabilized, highly pure rocuronium bromide” (priority 2004, published 2006)

Assays:
Format in all cases: physicochemical
[1] = hygroscopicity test at relative humidity of about 45%; conditions: within 24 hours, sample containing 3.1% acetic acid (stabilized solid of the invention)
Description: In another aspect, the present invention relates to an improved process for preparing a stable solid comprising substantially pure rocuronium bromide, which is substantially non-hygroscopic, because when subjected to hygroscopisity test at relative humidity of about 45%, a sample containing 3.1% acetic acid absorbed only about 2% water within 24 hours.

[2] = decomposition of rocuronium bromide in water at room temperature; conditions: aqueous solution, in 24 hours
Text: While freeze drying of the aqueous solution did reduce the isobutyl acetate level to an acceptable level of 0.26%, the impurity levels rose to 0.33%. […] This inherent instability in aqueous solution may explain thc observed rise in the impurities level in our hands.

[3] = nature of product freeze dried from unbuffered degassed water (Example 5); conditions: Example 5: dissolved in degassed water and freeze dried, no buffer
Description: Rocuronium bromide (2 grams) prepared according to example 1 and dried in a manner similar to entries 1 and 2 in table 2 (see example 4), was dissolved in degassed water (30 ml) and freeze dried.

C=CC[N+]1(C2CC3C4CC[C@H]5C[C@H](O)C(N6CCOCC6)C[C@]5(C)C4CC[C@]3(C)[C@H]2OC(C)=O)CCCC1.[Br-] (stereo partly drawn) [rocuronium bromide, 1-[(2β,3α,5α,16β,17β)-17-acetoxy-3-hydroxy-2-(4-morpholinyl)-androstan-16-yl-]-1-(2-propenyl)pyrrolidinium bromide]
water absorbed [1]: about 2%
decomposition rate in water [2]: 0.25-0.5%
hygroscopicity of product [3]: highly hygroscopic
